Measured values published in patent US11774396B2, “Systems and methods for patterning and spatial electrochemical mapping of cells” (President and Fellows of Harvard College, priority 2020, dated 2023).

Key:
[1] = tested on: MDCK cells; experiment: Wound healing assay: electrochemical patterning and impedance mapping of regrowth; type: cell-based, Canine; conditions: 1 μM, over the course of 72 hours; control culture took ~3 days to fill in the wound
Description: This example describes a combined application of both the cross-electrode impedance mapping and cell patterning is a wound healing assay.
These assays gauge cell growth rate and metabolism and can be useful for screening drugs affecting these parameters. Compared to the electrochemical patterning described herein, other tools mechanically generate a wound in a cell culture via a mechanical scratch which is both difficult to control and limiting in terms of wound pattern.
In this example, a wound is made in MDCK cells and then the growth is mapped in real-time. […] These patterns were defined by applying electrode currents of −10 nA for 40 s versus a Ag/AgCl pseudo reference electrode. The regrowth of the culture was then measured using the impedance mapping method.

[2] = tested on: MDCK cells
Description: This example describes a method using cross-electrode impedance mapping to quantify cell adhesion.
Ethylenediaminetetraacetic acid (EDTA) is applied to the cells. EDTA is a calcium chelator that removes Ca^2+ needed for integrin proteins to maintain cell adhesion.
FIG. 6b is a data plot showing mean normalized impedances for different regions of the cell culture over time as specified in the map 601. FIG. 6cc are histograms of the normalized impedance values before, during, and after a washout of EDTA across the array.

SMILES	regrowth of the wound in the cell culture (normalized cross-electrode impedance maps) [1]	time course over which the cells detach with EDTA applied ([2]; 5 mM EDTA application at t=~5 min)	time course over which the cells re-attach after EDTA washout ([2]; EDTA washed out by adding normal culture media)
C=C1[C@@H](C)[C@H]2[C@H](Cc3ccccc3)NC(=O)[C@]23OC(=O)/C=C/[C@H](O)CCC[C@@H](C)C/C=C/[C@H]3[C@@H]1O [cytochalasin B]	very little growth	–	–
O=C(O)CN(CCN(CC(=O)O)CC(=O)O)CC(=O)O [EDTA, Ethylenediaminetetraacetic acid]	–	~50 min	~200 min
